The text below walks through data of patent publication US10316131B2, “Hyperbranched polymer modified with isocyanate linker and mix of short and long chain alkyl polyether” (priority 2014, dated 2019).

Data set [1] can be described thus: Solubilization measurements with a highthroughput screening robot. The data set is classed as physicochemical. Here is the method:
Solubilization measurements were carried out with a highthroughput screening robot. […] After the addition of stirring bars and 24 hours incubation time the samples were filtrated through polypropylene filters in order to separate dissolved active and its solid form. The amount of solubilized active was determined by UV/VIS spectroscopy.

Data set [2] relates to Puccinia Recondata/Tritici. The data set is described as follows: Greenhouse test of pesticidal activity on infected wheat, suspension concentrates SC1 and SC2. The data set is classed as in vivo, Puccinia Recondata/Tritici on wheat variety Monopol. How it is done:
An aqueous suspension concentrate (“SC1”) was prepared as in Application Example 1. The pesticidal activity was tested in greenhouse tests on wheat variety Monopol, which was infected with the fungi Puccinia Recondata/Tritici. The plants were treated with SC1 three days after the inoculation at a use rate of […] (200 l water/ha). The use rate of the polymers of the invention was kept constant at 250 g per ha.
The above greenhouse tests were also made with a suspension concenctrate “SC2” of the triazole fungicide 2-[4-(4-chlorophenoxy)-2-(trifluoromethyl)phenyl]-1-(1H-1,2,4-triazol-1-yl)propan-2-ol (“triazole fungicide”) (100 g/ha) instead of fluxapyroxad.

Where [3] appears, read: 10 mg solid active in 3 wt % polymer solution in CIPAC water D, 24 hours, listed as of the active = no polymer.

In data set [1] (setting [3]), `NC(=O)N1c2ccccc2C=Cc2ccccc21` [carbamazepine] showed a Solubility of carbamazepine of 181 pmm.
In data set [1], `N#Cc1nn(-c2c(Cl)cc(C(F)(F)F)cc2Cl)c(N)c1[S+]([O-])C(F)(F)F` (centres unmarked) [fipronil] came in with a Solubility of fipronil of 12 pmm.
Take `Cn1cc(C(=O)Nc2ccccc2-c2cc(F)c(F)c(F)c2)c(C(F)F)n1` [fluxapyroxad]: the “% infected leaf area, use rate of active 33%” value in data set [2] (fluxapyroxad SC1, use rate 8.3 pesticide per ha, polymer 250 g per ha, treated three days after inoculation, 7 days after inoculation) is recorded as 80%. Further, the “% infected leaf area, use rate of active 100%” value in data set [2] (fluxapyroxad SC1, use rate 25 pesticide per ha, polymer 250 g per ha, treated three days after inoculation, 7 days after inoculation) was 79%. Besides, the Solubility of fluxapyroxad in data set [1] (setting [3]) is recorded as 10 pmm.
For the compound `CC(O)(Cn1cncn1)c1ccc(Oc2ccc(Cl)cc2)cc1C(F)(F)F` (centres unmarked) [triazole fungicide, 2-[4-(4-chlorophenoxy)-2-(trifluoromethyl)phenyl]-1-(1H-1,2,4-triazol-1-yl)propan-2-ol], in data set [2] (triazole fungicide SC2 (100 g/ha) instead of fluxapyroxad), the “% infected leaf area, use rate of active 100%” value is on record as 83%. In addition, the “% infected leaf area, use rate of active 33%” value in data set [2] (triazole fungicide SC2 instead of fluxapyroxad, 33% use rate) is on record as 91%. The “Solubility of the triazole fungicide” value in data set [1] (setting [3]) was found to be 15 pmm.
